Measurements: patent publication US6676973B1, “Method of treating ovarian cancers with cadmium” (priority 1995, dated 2004)
pIC50: −log10 of the molar value.

Key:
A2780/CP70 cells [1] = assay type: cell-based, human; settings: for pIC50: read-out: 50% cell kill (IC50)
Experimental: (§1) Human ovarian cancer A2780 and A2780/CP70 cells were cultured in monolayer using RPMI 1640 media supplemented with 10% fetal calf serum, 2 mM L-glutamine, 0.2 U insulin/ml, 100 U/ml penicillin, and 100 μg/ml streptomycin (GIBCO, Grands Island, N.Y.). Cells were grown in a humidified chamber containing a mixture of 5% CO2 and ambient air at 37° C. Sensitivity of A2780 and A2780/CP70 cells to Cd and to cisplatin was assessed by microculture tetrazolium (MTT) assay, as described by Alley et al. Briefly, cells were plated at 1000 cells/well in 96-well plates and drug exposure was made the following day. Cadmium dichloride was initially dissolved in double distilled water (Dh2O) at 1.0 mg/ml (5.46 Mm Cadmium), and dilutions from this solution were made in media to obtain the desired drug treatment concentrations of 1 μM, 10 μM, 20 μM, 40 μM, 100 μM, 150 μM and 200 μM. Cisplatin was dissolved in PBS without Ca^++ or Mg^++ at 1.0 mg/ml (3.33 Mm cisplatin), and dilutions from this solution was made in media to obtain the desired drug treatment concentrations of ranging from 1 μM to 300 μM. Drug treatments were for 1 hour.
(§2) After drug treatments, cells were washed twice with PBS without Ca^++ or Mg^++, treated with fresh drug-free media, and incubated for 5 days. On day 5 after drug treatment, 50 microliter of 3-(4,5-dimethylthiazol-2-yl)-2,5 diphenyltetrazolium bromide (MTT) (400 mg in 200 ml of PBS) were added to each well and incubated for 4 hours at 37° C. Analysis of optical density readings were performed using the VV Deltasoft program on a Macintosh computer (Apple, Inc., Palo Alto, Calif.) and percentage cell growth values were obtained.

A2780 cells [2] = test: microculture tetrazolium (MTT) cytotoxicity assay, A2780; assay type: cell-based, human; settings: for pIC50: read-out: 50% cell kill (IC50)
Experimental: as §1, §2

A2780 cells [3] = test: cellular drug accumulation and efflux at IC50 dose (AAS), A2780; assay type: cell-based, human; settings: for ASSOCIATED DRUG / PERCENT REMOVED (efflux) / PERCENT ACCUMULATION / DRUG UPTAKE: A2780; for PERCENT ACCUMULATION: IC50 dose; for DRUG UPTAKE: IC50 dose 58 μM
Experimental: (§3) Cells were harvested at time points of 15, 30, 45, and 60 minutes during 1 hour drug exposures, and at 1 and 3 hours after drug exposure. Cells were immediately counted and then wet-ashed. Total cellular drug. accumulation was measured by AAS, and assessed as both nanograms of Cd per million cells (ng Cd/10^6 cells) and as the percentage of the highest levels of total cellular drug.

[4] = test system: cellular DNA of A2780 cells; test: Cd-DNA adduct formation and repair after IC50 exposure (AAS), A2780; assay type: cell-based, human
Experimental: (§4) We examined the formation and removal of Cd-DNA adduct in cellular DNA following 1 hour drug exposures. […] An aliquot of cells was harvested before drug treatment (time zero). Following a 1 hour drug exposure, cells were washed and harvested at. the following time points: 0 hour (immediately at the end of Cd exposure), 1 hour, 6 hour, and 24 hours. Cells were frozen immediately at −20° C. until DNA isolation. Total cellular DNA was isolated and assayed as described above, and total Cd per unit DNA was measured by AAS.

A2780/CP70 cells [5] = test: cellular drug accumulation and efflux at IC50 dose (AAS), A2780/CP70; assay type: cell-based, human; settings: for PERCENT ACCUMULATION: IC50 dose; for DRUG UPTAKE: IC50 dose 128 μM
Experimental: as §3

[6] = test system: liver and lung tumors in B6C3F1 mice; settings: single dose of NDEA followed by cadmium chloride in the drinking water; cited from earlier work
[7] = test system: cellular DNA of A2780/CP70 cells; test: Cd-DNA adduct formation after 1 hour exposure to a range of Cd doses (AAS), A2780/CP70; assay type: cell-based, human
Experimental: We examined the formation of Cd-DNA adduct in cellular DNA following 1 hour exposures to a range of Cd drug doses. Cells were grown in T-150 flasks (Costar, Cambridge, Mass.) to 60-80% confluence and then exposed to 0 μM (control), 10 μM, 50 μM, 100 μM and 200 μM Cd for 1 hour. Following a 1 hour drug exposure, cells were washed twice with cold PBS, harvested, and frozen immediately at −20° C. until DNA isolation. Total cellular DNA was isolated on cesium chloride density gradients. DNA was dialyzed against Dh2O with 3-4 changes over 36-48 hours, and quantitated by absorbance at 260 nm. Total Cd per unit DNA was measured by AAS.

[8] = test system: cellular DNA of A2780/CP70 cells; test: Cd-DNA adduct formation and repair after IC50 exposure (AAS), A2780/CP70; assay type: cell-based, human
Experimental: as §4

A2780 cells [9] = test: cellular Cd accumulation after 1 hour exposure to a range of Cd doses (AAS), A2780; assay type: cell-based, human
Experimental: We examined the cellular Cd accumulation following 1 hour exposures to a range of Cd doses. Cells were grown in T-150 flasks (Costar, Cambridge, Mass.) to 60-80% confluence and then exposed to 10 μM, 50 μM, 100 μM and 200 μM Cd for 1 hour. Cells were harvested, immediately counted and then “wet-ashed” [20]. Total cellular Cd accumulation was measured by atomic absorption spectrometry with Zeeman background correction (AAS), and assessed as nanograms of Cd per million cells (ng Cd/10^6 cells)

[10] = A2780/CP70 cells, 1 hour exposure, MTT
[11] = A2780 cells, 1 hour exposure, MTT
[12] = 0 hours after 1 hour IC50 exposure
[13] = 1 hour after 1 hour IC50 exposure
[14] = 3 hours after 1 hour IC50 exposure
[15] = 3 hours after 1 hour IC50 exposure, listed as Cadmium

N.N.[Cl][Pt][Cl] [cisplatin, reference compound]
pIC50 (A2780/CP70 cells [1]; [10]): 3.80 | increase in resistance of A2780/CP70 cells as compared to A2780 cells (A2780/CP70 cells [1]; drug exposures associated with 50% cell kill): 10 fold | pIC50 (A2780 cells [2]; [11]): 4.80 | A2780 cells more sensitive to cisplatin than to Cd (A2780 cells [2]; on a μM basis, 50% cell kill): 3.6 fold

[Cl][Cd][Cl] [Cd, Cadmium dichloride]
ASSOCIATED DRUG (A2780 cells [3]; [12]): 20.85 ± 4.4 ng Cd/10^6 Cells | PERCENT REMOVED (efflux) (A2780 cells [3]; 0 hours after exposure): 90% | PERCENT ACCUMULATION (A2780 cells [3]; 15 minutes): 33% | DRUG UPTAKE (A2780 cells [3]; 15 minutes): 6.89 ± 0.53 ng Cd/10^6 | PERCENT ACCUMULATION (A2780 cells [3]; 30 minutes): 47% | DRUG UPTAKE (A2780 cells [3]; 30 minutes): 9.83 ± 1.06 ng Cd/10^6 | PERCENT ACCUMULATION (A2780 cells [3]; 45 minutes): 60% | DRUG UPTAKE (A2780 cells [3]; 45 minutes): 12.47 ± 1.95 ng Cd/10^6 | ASSOCIATED DRUG (A2780 cells [3]; [13]): 12.74 ± 3.74 ng Cd/10^6 Cells | PERCENT REMOVED (efflux) (A2780 cells [3]; 1 hour after exposure): 30% | PERCENT ACCUMULATION (A2780 cells [3]; 60 minutes): 100% | DRUG UPTAKE (A2780 cells [3]; 60 minutes): 20.85±4.49 ng Cd/10^6 | DRUG UPTAKE (A2780 cells [3]; 60 minutes, listed as Cadmium): 20.85 ± 4.49 ng Cd/10^6 | ASSOCIATED DRUG (A2780 cells [3]; [14]): 6.56±0.58 ng Cd/10^6 Cells | ASSOCIATED DRUG (A2780 cells [3]; [15]): 6.56 ± 0.58 ng Cd/10^6 Cells | PERCENT REMOVED (efflux) (A2780 cells [3]; 3 hours after exposure): 69% | greater rate of Cd accumulation, A2780 versus A2780/CP70 (A2780 cells [3]; from slopes, respective IC50 doses): 2.8 fold | Cd-DNA ADDUCT ([4]; 0 hours after 1 hour IC50 (58 μM) exposure): 8.45 ± 3.59 pg Cd/μg DNA | % REPAIR (amount of peak adduct removed) ([4]; 0 hours after IC50 exposure): 0% | Cd-DNA ADDUCT ([4]; 1 hour after 1 hour IC50 (58 μM) exposure, peak): 11.81±6.59 pg Cd/μg DNA | Cd-DNA ADDUCT ([4]; 1 hour after 1 hour IC50 (58 μM) exposure, peak, listed as Cadmium): 11.81 ± 6.59 pg Cd/μg DNA | % REPAIR (amount of peak adduct removed) ([4]; 1 hour after IC50 exposure): no removal | % REPAIR (amount of peak adduct removed) ([4]; 1 hour after IC50 exposure, listed as Cadmium): 0% | Cd-DNA ADDUCT ([4]; 6 hours after 1 hour IC50 (58 μM) exposure): 7.08±3.92 pg Cd/μg DNA | Cd-DNA ADDUCT ([4]; 6 hours after 1 hour IC50 (58 μM) exposure, listed as Cadmium): 7.08 ± 3.92 pg Cd/μg DNA | % REPAIR (amount of peak adduct removed) ([4]; 6 hours after IC50 exposure): 40% | Cd-DNA ADDUCT ([4]; 24 hours after 1 hour IC50 (58 μM) exposure): 5.28±3.11 pg Cd/μg DNA | Cd-DNA ADDUCT ([4]; 24 hours after 1 hour IC50 (58 μM) exposure, listed as Cadmium): 5.28 ± 3.11 pg Cd/μg DNA | % REPAIR (amount of peak adduct removed) ([4]; 24 hours after IC50 exposure): 55% | ASSOCIATED DRUG (A2780/CP70 cells [5]; [12]): 6.61 ± 1.4 ng Cd/10^6 Cells | PERCENT REMOVED (efflux) (A2780/CP70 cells [5]; 0 hours after exposure): 80% | PERCENT ACCUMULATION (A2780/CP70 cells [5]; 15 minutes): 10% | DRUG UPTAKE (A2780/CP70 cells [5]; 15 minutes): 0.65 ± 0.16 ng Cd/10^6 | PERCENT ACCUMULATION (A2780/CP70 cells [5]; 30 minutes): 46% | DRUG UPTAKE (A2780/CP70 cells [5]; 30 minutes): 3.03 ± 1.11 ng Cd/10^6 | PERCENT ACCUMULATION (A2780/CP70 cells [5]; 45 minutes): 66% | DRUG UPTAKE (A2780/CP70 cells [5]; 45 minutes): 4.33 ± 2.02 ng Cd/10^6 | ASSOCIATED DRUG (A2780/CP70 cells [5]; [13]): 4.08 ± 1.4 ng Cd/10^6 Cells | PERCENT REMOVED (efflux) (A2780/CP70 cells [5]; 1 hour after exposure): 38% | PERCENT ACCUMULATION (A2780/CP70 cells [5]; 60 minutes): 100% | DRUG UPTAKE (A2780/CP70 cells [5]; 60 minutes): 6.61±1.48 ng Cd/10^6 | DRUG UPTAKE (A2780/CP70 cells [5]; 60 minutes, listed as Cadmium): 6.61 ± 1.48 ng Cd/10^6 | ASSOCIATED DRUG (A2780/CP70 cells [5]; [14]): 2.08±0.92 ng Cd/10^6 Cells | ASSOCIATED DRUG (A2780/CP70 cells [5]; [15]): 2.08 ± 0.92 ng Cd/10^6 Cells | PERCENT REMOVED (efflux) (A2780/CP70 cells [5]; 3 hours after exposure): 69% | incidence and multiplicity of NDEA-induced lung tumors [6]: reduced | spontaneously-occurring liver tumors [6]: eliminated | more DNA damage required in resistant A2780/CP70 cells to induce an equivalent level of cell kill ([7]; FIG. 5B, A2780/CP70 versus A2780): 5-10 lesions per million DNA bases | more Cd needed in A2780/CP70 to attain the same level of Cd-DNA damage as in A2780 ([7]; from slopes of the equations): 1.7 fold | 10% cell kill (A2780/CP70 cells [1]; [10]): 28 µM | 90% cell kill (A2780/CP70 cells [1]; [10]): 195 µM | pIC50 (A2780/CP70 cells [1]; [10]): 3.89 | level of cross-resistance of A2780/CP70 cells to Cd (A2780/CP70 cells [1]; compared with 10-fold resistance to cisplatin): approximately equal level | A2780/CP70 cells more sensitive to Cd (than to cisplatin) (A2780/CP70 cells [1]; on a μM basis, 50% cell kill): 1.25 fold | 10% cell kill (A2780 cells [2]; [11]): 0.45 µM | 90% cell kill (A2780 cells [2]; [11]): 130 µM | pIC50 (A2780 cells [2]; [11]): 4.24 | Cd-DNA ADDUCT ([8]; 0 hours after 1 hour IC50 (128 μM) exposure, peak): 15.58±3.56 pg Cd/μg DNA | Cd-DNA ADDUCT ([8]; 0 hours after 1 hour IC50 (128 μM) exposure, peak, listed as Cadmium): 15.58 ± 3.56 pg Cd/μg DNA | % REPAIR (amount of peak adduct removed) ([8]; 0 hours after IC50 exposure): 0% | Cd-DNA ADDUCT ([8]; 1 hour after 1 hour IC50 (128 μM) exposure): 13.31 ± 4.62 pg Cd/μg DNA | % REPAIR (amount of peak adduct removed) ([8]; 1 hour after IC50 exposure): 15% | Cd-DNA ADDUCT ([8]; 6 hours after 1 hour IC50 (128 μM) exposure): 12.05±3.98 pg Cd/μg DNA | Cd-DNA ADDUCT ([8]; 6 hours after 1 hour IC50 (128 μM) exposure, listed as Cadmium): 12.05 ± 3.98 pg Cd/μg DNA | % REPAIR (amount of peak adduct removed) ([8]; 6 hours after IC50 exposure): 23% | Cd-DNA ADDUCT ([8]; 24 hours after 1 hour IC50 (128 μM) exposure): 8.47±2.85 pg Cd/μg DNA | Cd-DNA ADDUCT ([8]; 24 hours after 1 hour IC50 (128 μM) exposure, listed as Cadmium): 8.47 ± 2.85 pg Cd/μg DNA | % REPAIR (amount of peak adduct removed) ([8]; 24 hours after IC50 exposure): 46% | slope of linear regression, cellular Cd versus Cd dose (A2780 cells [9]; A2780 cells, 1 hour exposure, up to 200 μM): 0.024 | more cellular drug accumulated per unit dose, A2780 versus A2780/CP70 (A2780 cells [9]; from slopes of linear regression): 4.9 fold
